Legend:
[1] = system: MDA-MB-231 cells; assay: Cell Activity Test 1: pNP-AMP hydrolysis on MDA-MB-231 cells, absorbance at 405; type: cell-based; settings: Homo sapiens, 1 hour pre-incubation, 0.25 mM pNP-AMP, 5 hours of reaction, read-out: MDA-MB-231 cell biochemical IC50
Method: MDA-MB-231 cells were digested and suspended, the cell density was adjusted to 4.5×10^5 cells per milliliter, and the cells were seeded in 384 microtiter plates at 50 microliters per well. The cells were incubated in an incubator at 37° C. with […] for 24 h. After 24 h, the cell plates were taken out, the cell culture medium was pipetted and washed once with 50 μL of PBS. Then 20 μL of 1640 medium free of phenol red and serum was added per well, and 2× of compound was added with Tecan, with 1:3 dilution. The compounds were pre-incubated for 1 hour. Afterwards, the reaction was initiated by adding a substrate mixture (50 μL system, 0.5 mM pNP-AMP dissolved in 1640 medium free of phenol red and serum) at a final substrate concentration of 0.25 mM. Absorbance values were read at 405 nm in a microplate reader after 5 hours of reaction, 4-Parameter Logistic Curve model was applied to calculate the […] of the compounds, taking positive compounds as 100% inhibition and DMSO as 0% inhibition.

[2] = system: MDA-MB-231 CM-THP1 (THP1-Dual Cells NF-κB-SEAP and IRF-Lucia luciferase Reporter Monocytes); assay: Cell Activity Test 2: MDA-MB-231 cells treated with compound and cGAMP, supernatant transferred to THP1-Dual IRF-Lucia luciferase reporter cells; type: cell-based; settings: 30 minutes pretreatment, cGAMP 24 hours, supernatant on THP1-Dual reporter cells 24 hours, QUANTI-Luc
From the text: THP1-Dual Cells NF-κB-SEAP and IRF-Lucia luciferase Reporter Monocytes cells (Invivogen, thpd-nfis), MDA-MB-231 cells (ATCC, CRM-HTB-26), RPMI-1640 medium (Gibco, 11875-093), FBS (Gibco, 10099), penicillin-streptomycin (Gibco, 15070063), HEPES (ThermoFisher, 15630080), L-glutamine (ThermoFisher, 25030081), Normocin-Antimicrobial Reagent (InVivoGen, ant-nr-1), Zeocin (Invivogen, ant-zn-1), Blasticidin (Invivogen, ant-bl-1), Mammalian (non-canonical) CDN, cyclic [G(2′,5′)pA(3′,5′)p] (referred to as cGAMP hereinafter, Invivogen, tlrl-nacga23-1), QUANTI-Luc (InvivoGen, rep-qlc2), Multimode Plate Reader (PerkinElmer, EnVision 2105 Alpha 680 nm Laser), and conventional cell culture consumables (NEST). […]
An appropriate amount of MDA-MB-231 cells in logarithmic growth phase was taken and centrifuged at 300×g for 5 minutes, and the supernatant was removed. The cells were re-suspended with MDA-MB-231 cell growth medium and counted, and the cell density was adjusted to 6×10^4 cells/mL. […]
After 24 hours, the resulting was centrifuged at 300×g for 5 minutes, 10 μL of cell supernatant was transferred to a new 384-well plate with a white opaque bottom, followed by the addition of 25 μL of QUANTI-Luc reaction solution to each well. They were shaken well for 1 minute away from light and the plate was read immediately.

[3] = molecular target: T1, human ENPP1 (Homo sapiens, UniProt P22413); assay: In vitro enzyme activity assay: human ENPP1 enzymatic assay (cGAMP), AMP-Glo; type: biochemical; settings: substrate cGAMP, AMP-Glo detection
T1 construct: purchased Biovendor AP-18-081; host or cells: HEK293
T1 sequence (P22413 1-925): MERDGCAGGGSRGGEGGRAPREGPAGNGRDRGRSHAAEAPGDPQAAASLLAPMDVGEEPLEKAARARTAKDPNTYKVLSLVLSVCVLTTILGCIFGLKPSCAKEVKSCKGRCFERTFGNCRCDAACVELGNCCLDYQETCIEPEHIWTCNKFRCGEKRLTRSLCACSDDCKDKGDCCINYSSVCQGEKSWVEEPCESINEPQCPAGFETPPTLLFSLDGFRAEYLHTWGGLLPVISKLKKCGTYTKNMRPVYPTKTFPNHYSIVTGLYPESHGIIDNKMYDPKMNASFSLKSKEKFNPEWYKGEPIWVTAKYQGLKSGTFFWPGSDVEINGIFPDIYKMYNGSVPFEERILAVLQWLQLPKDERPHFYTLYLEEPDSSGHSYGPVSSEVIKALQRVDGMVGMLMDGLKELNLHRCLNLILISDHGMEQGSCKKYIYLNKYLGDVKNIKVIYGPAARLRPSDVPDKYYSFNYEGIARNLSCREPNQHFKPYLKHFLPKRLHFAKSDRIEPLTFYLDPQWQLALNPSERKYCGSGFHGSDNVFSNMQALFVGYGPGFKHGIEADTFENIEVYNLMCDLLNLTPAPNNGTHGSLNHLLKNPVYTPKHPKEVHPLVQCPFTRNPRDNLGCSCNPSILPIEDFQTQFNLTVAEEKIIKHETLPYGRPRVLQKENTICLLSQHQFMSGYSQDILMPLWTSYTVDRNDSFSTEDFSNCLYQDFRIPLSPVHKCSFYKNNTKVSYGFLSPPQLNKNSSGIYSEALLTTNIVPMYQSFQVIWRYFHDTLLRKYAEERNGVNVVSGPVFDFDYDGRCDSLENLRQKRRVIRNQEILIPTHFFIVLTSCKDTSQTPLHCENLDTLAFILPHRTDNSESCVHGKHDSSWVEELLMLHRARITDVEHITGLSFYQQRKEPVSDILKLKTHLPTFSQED
Method: AMP-Glo Assay Kit (PROMEGA, V5012), ENPP-1-IN-1 (MCE, HY-129490), white opaque 384-well plate (Perkin Elmer, 6008289), Mammalian (non-canonical) CDN, cyclic[g(2′,5′)pA(3′,5′)p](referred to as cGAMP hereinafter, Invivogen, tlrl-nacga23-5), ENPP1 Protein Human HEK293 (Biovendor, AP-18-081).
• 1) Preparing 1× reaction buffer (Tris buffer), 1× enzyme buffer, and 1× substrate buffer; • 2) diluting the compounds using Echo550 and supplementing with DMSO; • 3) pre-loading 2.5 μL of enzyme solution on a reaction plate (adding 2.5 μL of buffer instead as negative control) and incubating it at room temperature; • 4) adding 2.5 μL of substrate solution to the system and incubating it at room temperature; • 5) adding 5 μL of AMP-Glo solution that has been allowed to cooled down to room temperature, centrifuging and reacting at room temperature, • 6) adding 10 μL of AMP Detection solution at room temperature, centrifuging and reacting at room temperature; and • 7) reading the plate using EnVision.

Row | IC50 [1] [nM] | EC50 [2] [nM] | IC50 [3] [nM] | Structure (SMILES)
1 | 1.12 | 3.5 | < 10 | O=c1[nH]c2cnc3c4c(ccc3c2n1Cc1ccc(P(=O)(O)O)c(F)c1)OCO4 [Compound 1, (2-fluoro-4-((7-oxo-6,7-dihydro-8H-[1,3]dioxolo[4,5-h]imidazo[4,5-c]quinolin-8-yl)methyl)phenyl)phosphonic add]
2 |  |  | < 10 | O=c1[nH]c2cnc3c4c(ccc3c2n1Cc1ccc(P(=O)(O)O)c(Br)c1)OCO4 [Compound 16]
3 |  |  | < 10 | O=c1[nH]c2cnc3c4c(ccc3c2n1Cc1ccc(B(O)O)cc1)OCO4 [Compound 48]
4 |  |  | < 10 | O=c1[nH]c2cnc3c4c(ccc3c2n1Cc1ccc(P(=O)(O)O)c(OCc2ccccc2)c1)OCO4 [Compound 61]
5 |  |  | 10 to 50 | O=c1[nH]c2cnc3c4c(ccc3c2n1Cc1ccc(P(=O)(O)O)c2ccccc12)OCO4 [Compound 8]
6 |  |  | < 10 | CC(C)CCn1c(=O)n(Cc2ccc(P(=O)(O)O)c(F)c2)c2c3ccc4c(c3ncc21)OCO4 [Compound 30]
7 |  |  | < 10 | O=c1[nH]c2cnc3c4c(ccc3c2n1Cc1ccc(P(=O)(O)O)c(Cl)c1)OCO4 [Compound 15]

Continued, molecule first:

Row | Structure (SMILES) | IC50 [1] [nM] | EC50 [2] [nM] | IC50 [3] [nM]
8 | COc1ccc2c(ncc3[nH]c(=O)n(Cc4ccc(P(=O)(O)O)c(F)c4)c32)n1 [Control Compound, reference compound] | 9.78 | 14.6 | 
9 | O=c1n(CCC2CCOCC2)c2cnc3c4c(ccc3c2n1Cc1ccc(P(=O)(O)O)c(F)c1)OCO4 [Compound 25] |  |  | < 10
10 | Cn1c(=O)n(Cc2ccc(P(=O)(O)O)c(F)c2)c2c3cn[nH]c3ncc21 [Compound 60] |  |  | < 10
11 | CC(c1ccc(P(=O)(O)O)c(F)c1)n1c(=O)[nH]c2cnc3c4c(ccc3c21)OCO4 (stereo not drawn) [Compound 5-P2] |  |  | < 10
12 | CC(c1ccc(P(=O)(O)O)c(F)c1)n1c(=O)[nH]c2cnc3c4c(ccc3c21)OCO4 (stereo not drawn) [Compound 5-P1] |  |  | < 10
